Assay results published in patent US8440637B2, “Combination treatment for the treatment of hepatitis C virus infection” (priority 2007, dated 2013).
“Also recorded” adds a separate entry of the source. Strand notation (5' to 3'): a small letter for the sugar, then the base; units joined by * are phosphorothioate-linked, units joined directly phosphodiester-linked; [ ] holds rarer units or linkages, { } end groups; capitals alone tell only the bases. l = locked nucleic acid (LNA); [5mC] = 5-methylcytosine; d = 2'-deoxy (DNA)

Columns and labels:
[1] = system: miR-122a target genes (Bckdk, aldolase A, Nrdg3, CD320, Vldlr); test: miR-122a target mRNA levels in mouse liver by qPCR; format: in vivo; settings: for Bckdk and AldoA mRNA levels compared to SEQ ID NO: 61 treated mice (in words) / upregulation of miR-122a target genes Bckdk and AldoA (in words): liver, 48 hours after last dose (Day 6)
Procedure: The saline control and different LNA-antimiR-122a treated animals were sacrificed 48 hours after last dose (Day 6), and total RNA was extracted from liver samples as using Trizol reagent according to the manufacturer's recommendations (Invitrogen, USA). The mRNA levels were assessed by real-time quantitative RT-PCR for two miR-122a target genes, Bckdk (branched chain ketoacid dehydrogenase kinase, ENSMUSG00000030802) and aldolase A (aldoA, ENSMUSG00000030695), respectively, as well as for GAPDH as control, using Taqman assays according to the manufacturer's instructions (Applied biosystems, USA).
NMRI mice were administered intravenously with SEQ ID NO: 61 SEQ ID NO: 61 using daily doses ranging from 2.5 to 25 mg/kg for three consecutive days. Animals were sacrificed 24 hours, 1, 2 or 3 weeks after last dose. Livers were harvested divided into pieces and submerged in RNAlater (Ambion) or snap-frozen. RNA was extracted with Trizol reagent according to the manufacturer's instructions (Invitrogen) from the RNAlater tissue, except that the precipitated RNA was washed in 80% ethanol and not vortexed. The RNA was used for mRNA TaqMan qPCR according to manufacturer (Applied biosystems) or northern blot (see below). The snap-frozen pieces were cryo-sectioned for in situ hybridizations.
Mice were treated with different SEQ ID NO: 61 SEQ ID NO: 61 doses for three consecutive days, as described above and sacrificed 24 hours after last dose. Total RNA extracted from liver was subjected to qPCR. […] Total liver RNA from 2 to 3 mice per group sacrificed 24 hours after last dose were subjected to qPCR for the indicated genes. Shown in FIG. 9 is mRNA levels relative to Saline group, n=2-3 (2.5-12.5 mg/kg/day: n=2, no SD). Shown is also the mismatch control (m, SEQ ID NO: 65).
Assayed genes: Nrdg3 Aldo A, Bckdk, CD320 with predicted miR-122 target site.
NMRI female mice were treated with 25 mg/kg/day SEQ ID NO: 61SEQ ID NO: 61 along with saline control for three consecutive days and sacrificed 1, 2 or 3 weeks after last dose, respectively. RNA was extracted from livers and mRNA levels of predicted miR-122a target mRNAs, selected by microarray data were investigated by qPCR. Three animals from each group were analysed.
mRNA levels are normalized to the individual GAPDH levels and to the mean of the Saline treated group at each individual time point. Included are also the values from the animals sacrificed 24 hours after last dose. Shown is mean and standard deviation, n=3 (24 h n=3)
The same liver RNA samples as in previous example were investigated for Vldlr induction.
(§1) NMRI female mice were treated with indicated doses of LNA-antimiR (SEQ ID NO: 61) along with a mismatch control (m, SEQ ID NO: 65), saline and antagomir (SPC3595) for three consecutive days and sacrificed 24 hours after last dose (as in example 11 “old design”, n=5). miR-122 levels were analyzed by qPCR and normalized to the saline treated group.
mRNA quantification of selected genes was done using standard Tag Man assays (Applied Biosystems). The reverse transcription reaction was carried out with random decamers, 0.5 μg total RNA, and the M-MLV RT enzyme from Ambion according to a standard protocol. First strand cDNA was subsequently diluted 10 times in nuclease-free water before addition to the RT-PCR reaction mixture. A two-fold cDNA dilution series from liver total RNA of a saline-treated animal or mock transfected cells cDNA reaction (using 2.5 times more total RNA than in samples) served as standard to ensure a linear range (Ct versus relative copy number) of the amplification. Applied Biosystems 7500 or 7900 real-time PCR instrument was used for amplification.

miR-122a = miR-122a levels in mouse liver by microRNA specific qPCR; format: in vivo
Procedure: Total RNA was extracted from liver samples as described above and analysed for miR-122a levels by microRNA specific QPCR.
In vivo study: Ten groups of animals (female C57/BL6; 3 mice per group) were treated in the following manner. Group 1 animals were injected with 0.2 ml saline by i.p. on day 0, day 2 and day 4. Groups 2-10 were dosed by i.p. with three different conc. (25 mg/kg, 5 mg/kg and 1 mg/kg) of either LNA antimiR-122a/SEQ ID NO: 61 (group 2-4), LNA antimir-122a/SEQ ID NO: 66 (group 5-7) or LNA antimir-122a/SEQ ID NO: 63 (group 8-10); the LNA antimir-122a sequences are given in the Table 1. All three LNA antimiR-122a oligonucleotides target the liver-specific miR-122a. The doses were calculated from the Day 0 body weights of each animal.
The animals were sacrificed 48 hours after last dose (Day 6), retro-orbital blood was collected in tubes containing EDTA and the plasma fraction harvested and stored frozen −80° C. for cholesterol analysis. At sacrifice livers were dissected and one portion was cut into 5 mm cubes and immersed in 5 volumes of ice-cold RNAlater. A second portion was snap frozen in liquid nitrogen and stored for cryo-sectioning.
Total RNA was extracted from liver samples using Trizol reagent according to the manufacturer's recommendations (Invitrogen, USA) and analysed for miR-122a levels by microRNA-specific QPCR according to the manufacturer's recommendations (Ambion, USA). […]
as §1
C57BL/6J female mice were fed on high fat diet for 13 weeks before the initiation of the SEQ ID NO: 63 treatment. […] Both hypercholesterolemic and normal mice were treated i.p. twice weekly with 5 mg/kg SEQ ID NO: 63 and the corresponding mismatch control for a study period of 5½ weeks. Blood samples were collected weekly and total plasma cholesterol was measured during the entire course of the study. Upon sacrificing the mice, liver and blood samples were prepared for total RNA extraction, miRNA and mRNA quantification, assessment of the serum transaminase levels, and liver histology.
The miR-122 and let-7a microRNA levels were quantified with TaqMan microRNA Assay (Applied Biosystems) following the manufacturer's instructions. The RT reaction was diluted ten times in water and subsequently used for real time PCR amplification according to the manufacturer's instructions. A two-fold cDNA dilution series from liver total RNA of a saline-treated animal or mock transfected cells cDNA reaction (using 2.5 times more total RNA than in samples) served as standard to ensure a linear range (Ct versus relative copy number) of the amplification. Applied Biosystems 7500 or 7900 real-time PCR instrument was used for amplification.

[2] = i.p. on day 0, 2 and 4 at 25, 5 and 1 mg/kg, 48 hours after last dose

Row | Substance | Bckdk and AldoA mRNA levels compared to SEQ ID NO: 61 treated mice (in words) [1] | upregulation of miR-122a target genes Bckdk and AldoA (in words) [1] | efficacy in vivo in miR-122a silencing compared to SEQ ID NO: 61 (in words) (miR-122a; [2]) | IC50, miR-122a silencing in liver (miR-122a; female C57/BL6, i.p. on day 0, 2 and 4 at 25, 5 and 1 mg/kg, 48 hours after last dose) | miR-122 levels in liver after long-term treatment (in words) (miR-122a; hypercholesterolemic and normal mice, 5 mg/kg i.p. twice weekly for 5½ weeks) | Vldlr induction in liver (in words) ([1]; 25 mg/kg/day for three consecutive days, 1, 2 or 3 weeks after last dose) | mRNA levels of predicted miR-122a target mRNAs over time (in words) ([1]; NMRI female mice, 25 mg/kg/day for three consecutive days, 1, 2 or 3 weeks after last dose) | de-repression of miR-122 target mRNAs (AldoA, Bckdk, CD320, Nrdg3) (in words) ([1]; NMRI female mice, three consecutive days, 24 hours after last dose, compared to antagomir treated mice, listed as LNA-antimiR) | induction of miR-122a target genes (Nrdg3, Aldo A, Bckdk, CD320) (in words) ([1]; different doses for three consecutive days, 24 hours after last dose) | miR-122a inhibition (in words) (miR-122a; 25 mg/kg i.v. on 3 successive days, Day 16) | miR-122a levels (in words) (miR-122a; 25 mg/kg i.v. on 3 successive days, Day 23) | miR-122a inhibition compared to saline control (in words) (miR-122a; 25 mg/kg i.v. on 3 successive days, sacrifice Day 9, 16 or 23) | IC50, miR-122a levels in liver (miR-122a; i.v. on 3 successive days, 2.5-25 mg/kg, 24 hour after last dose) | reduction of miR-122 levels (miR-122a; one week after last LNA dose)
1 | 5′-AttGTcaCaCtCC-3′ (antisense lA*dT*dT*lG*lT*dC*dA*l[5mC]*dA*l[5mC]*dT*l[5mC]*l[5mC]) [SEQ ID NO: 66] | significantly higher | clear dose-dependent upregulation | significantly improved efficacy in vivo |  |  |  |  |  |  |  |  |  |  | 
2 | 5′-CcAttGTcaCaCtCC-3′ (antisense CCATTGTCACACTCC; sugars from the 5' end ldlddllddldldll, backbone and methylation of C not given here) [SEQ ID NO: 63] | significantly higher | clear dose-dependent upregulation | most potent | ~1 mg/kg | comparable profile in both hypercholesterolemic and normal mice |  |  |  |  |  |  |  |  | 
3 | 5′-ccAttGtcAcaCtcCa-3′ (antisense CCATTGTCACACTCCA; sugars from the 5' end ddlddlddlddlddld, backbone and methylation of C not given here) [SEQ ID NO: 61] |  | clear dose-dependent upregulation |  |  |  | transient up-regulation | transient induction followed by a restoration of normal expression levels | dose-dependent de-repression; also recorded: consistently higher | clear dose-dependent induction | inhibition could still be detected | approached those of the saline group | two-fold inhibition | 3 to 5 mg/kg | 50%
